According to ChEMBL document CHEMBL1159355, “New dihydrostilbene derivatives from the leaves of Glycyrrhiza glabra and evaluation of their antioxidant activity” (J Nat Prod, 2003):

assay: Antioxidant activity against linolenic acid oxidation assessed as inhibition rate constant for conjugated diene hydroperoxide formation; format: functional

Row | SMILES | Activity [×10⁴ /M/s]
1 | CC(C)=CCc1cc(CCc2cc(O)cc(O)c2)ccc1O | 6
2 | CC(C)=CCc1cc(CCc2cc(O)c(CC=C(C)C)c(O)c2)cc(O)c1O | 11
3 | CC(C)=CCc1cc(CCc2cc(O)cc(O)c2)cc(O)c1O | 9
4 | CC(C)=CCc1cc(CCc2cc(O)c(CC=C(C)C)c(O)c2)ccc1O | 7
5 | COc1c(O)cc(CCc2cc(O)cc(O)c2)cc1CC=C(C)C | 8
